Drawing on patent US11155523B2, “Biphenyl compound as CCR2/CCR5 receptor antagonist” (Medshine Discovery Inc., priority 2016, dated 2021), this text covers IC50 for 19 compounds.

pIC50: −log10 of the molar value.

As usually defined, the pIC50 is the negative decadic logarithm of the IC50, by convention in mol/L.

T2 sequence (P51681 whole entry, species assumed): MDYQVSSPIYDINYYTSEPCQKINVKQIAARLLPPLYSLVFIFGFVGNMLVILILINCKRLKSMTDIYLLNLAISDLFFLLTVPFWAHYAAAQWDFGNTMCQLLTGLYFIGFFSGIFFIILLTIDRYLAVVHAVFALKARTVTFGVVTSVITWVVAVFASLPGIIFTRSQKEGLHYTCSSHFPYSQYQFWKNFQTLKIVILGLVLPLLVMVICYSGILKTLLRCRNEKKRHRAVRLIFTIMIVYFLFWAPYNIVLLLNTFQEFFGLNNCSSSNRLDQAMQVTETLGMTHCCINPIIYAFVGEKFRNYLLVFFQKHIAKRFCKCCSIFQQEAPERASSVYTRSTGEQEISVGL

The first experiment deals with T1, CCR2 (Homo sapiens, UniProt P41597).
T1 construct: expressed in transfected cells; host or cells: HEK293, clone C7, passage P6
T1 sequence (P41597 whole entry, species assumed): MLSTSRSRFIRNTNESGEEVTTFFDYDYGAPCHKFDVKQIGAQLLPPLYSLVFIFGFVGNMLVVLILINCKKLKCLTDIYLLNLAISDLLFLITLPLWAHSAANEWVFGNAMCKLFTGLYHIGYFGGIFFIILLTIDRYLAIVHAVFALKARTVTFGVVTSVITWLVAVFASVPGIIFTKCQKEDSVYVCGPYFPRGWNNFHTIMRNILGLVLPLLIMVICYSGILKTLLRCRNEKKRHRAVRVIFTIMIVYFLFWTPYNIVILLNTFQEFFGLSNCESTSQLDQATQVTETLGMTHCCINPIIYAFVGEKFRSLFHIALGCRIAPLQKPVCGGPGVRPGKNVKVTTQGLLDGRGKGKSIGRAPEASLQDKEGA
In words: CCR2 in vitro test: intracellular calcium signal detected by FLIPR. Type of experiment: cell-based. Particulars: HEK293 cells expressing CCR2, agonist MCP-1 at EC80, calcium signal. The method, then:
(§1) Experimental Example 1: CCR2/CCR5 In Vitro Test
(§2) The intracellular calcium signal was detected by FLIPR, and the IC50 value of the compound was used as an index to evaluate the inhibitory effect of the compound on CCR2 and CCR5 receptors.
(§3) 1. Cell line: The cells were inoculated and incubated in a 5% CO2 incubator at 37° C. overnight.
(§4) CCR2/CCR5 density: 1 M (20 k/well)
(§5) 2. Reagents: Fluo-4 Direct, (Invitrogen, Cat #F10471)
(§6) The compound was dissolved in DMSO to prepare a 10 mM solution, and the compound solution was placed in a nitrogen box.
(§7) Agonist reference compounds:
(§8) Preparation of probenecid in FLIPR assay buffer: 1 mL of FLIPR assay buffer was added to […] of probenecid to prepare a 250 mM solution, which is prepared fresh daily.
(§9) 2× (8 μM) Fluo-4 Direct™ Loading Buffer (per 10 mL) • Thaw a bottle of Fluo-4 Direct™ crystal (F10471). • Add 10 mL of FLIPR assay buffer to the vial. • Add 0.2 mL of probenecid to each 10 mL of Fluo-Direct. The final concentration of the assay was 2.5 mM. • Rotate it and place for >5 minutes (in absence of light). • Prepare fresh daily.
(§10) MCP-1 was diluted in FLIPR assay buffer 1:2 into 10 points, starting at 0.5 uM (final 100 nM). RANTES was diluted in FLIPR assay buffer 1:3 into 10 points, starting at 0.5 uM (final 100 nM). 20 uL of serially diluted compound buffer was added to each well of the DRC plate according to the compound plate map.
(§11) Standard compound was diluted in DMSO 1:3 into 11 points, starting at 1 mM. Test compound was diluted in DMSO 1:3 into 11 points, starting at 2 mM. 250 nL of compound solution was transferred into a cell plate using Echo (Greiner #781946).
(§12) (c) Take the cell plate out of the incubator, and gently dispense 20 uL of 2× Fluo-4 Direct wash-free loading buffer into a 384-well cell culture plate using a pipette. The final cell plate is 40 μL in volume.
(§13) (d) Incubate for 50 minutes at 37° C. under 5% CO2, and for 10 minutes at room temperature.
(§14) (e) Take the cell plate out of the incubator, and place it in FLIPR. Place the composite plate and the tip box in FLIPR.
(§15) (f) For DRC plate: • 1) Run the program on FLIPRTETRA. • 2) Read the fluorescent signal. • 3) Transfer 10 μL of compound from the DRC plate to the cell plate. • 4) Read the fluorescent signal. • 5) Calculate the “maximum−minimum” from Read 90 to the maximum allowed. Use FLIPR to calculate the EC80 value of each cell line. • 6) Prepare 5×EC80 concentration of the agonist reference compound.
(§16) (g) For the composite plate (1-add): • 1) Run the program on FLIPRTETRA. • 2) Transfer 10 μl, of 5×EC80 concentration of the agonist reference compound from the composite plate to the cell plate. • 3) Read the fluorescent signal. • 4) Calculate the “maximum−minimum” from Read 90 to the maximum allowed.
(§17) (h) Analyze the data using Prism, and calculate the IC50 value of the compound.
Background: A change in cytosolic calcium serves as a functional read-out for many receptors and channels.
For `CCCCOc1ccc(-c2ccc(OCC(F)F)c(/C=C/C(=O)Nc3ccc([S@@+]([O-])Cc4cncn4CCC)cc3)c2)cc1` [WX026], the pIC50 is 6.76.

With `CCCCOCCOc1ccc(-c2cccc(/C=C/C(=O)Nc3ccc(S(=O)(=O)Cc4cncn4CCC)cc3)c2)cc1` [WX031], the negative-log IC50 (pIC50) was 6.62.

`CCCOCCOc1ccc(-c2ccc(OCC)c(/C=C/C(=O)Nc3ccc([S+]([O-])Cc4c(C)ncn4CCC)cc3)c2)cc1` (centres unmarked) [WX069]: the negative-log IC50 (pIC50) was 7.45.

As for `CCCOc1ccc(-c2cccc(/C=C(\C)C(=O)Nc3ccc([S+]([O-])Cc4nncn4CCC)cc3)c2)cc1` (centres unmarked) [WX015], the pIC50 is 7.21.

Regarding `CCCCOCCOc1ccc(-c2ccc(OCC)c(/C=C/C(=O)Nc3ccc([S@@+]([O-])Cc4cncn4CCC)cc3)c2)cc1` [WX032], the pIC50 is 7.54.

Turning to `CCCCOCCOc1ccc(-c2ccc(OC)c(/C=C/C(=O)Nc3ccc([S@@+]([O-])Cc4cncn4CCC)cc3)c2)c(C)c1` [WX036], the negative logarithm of the IC50 (pIC50) is 7.19.

On to `CCCn1cncc1C[S@+]([O-])c1ccc(NC(=O)/C=C/c2cccc(-c3ccc(OCCOC)cc3)c2)cc1` [WX013], for which the negative-log IC50 (pIC50) was 6.01.

As to `CCCCOCCOc1ccc(-c2ccc(O)c(/C=C/C(=O)Nc3ccc([S@@+]([O-])Cc4cncn4CCC)cc3)c2)cc1` [WX049], the pIC50 is 7.88.

Regarding `CCCCOCCOc1ccc(-c2ccc(C(C)C)c(/C=C/C(=O)Nc3ccc([S@@+]([O-])Cc4cncn4CCC)cc3)c2)cc1` [WX006], the pIC50 is 7.49.

As to `CCCOCCOc1ccc(-c2ccc(OC)c(/C=C/C(=O)Nc3ccc([S@@+]([O-])Cc4cncn4CCC)cc3)c2)cc1` [WX050], the negative-log IC50 (pIC50) is 7.90.

For `CCCCOCCOc1ccc(-c2ccc(OC(F)F)c(/C=C/C(=O)Nc3ccc([S@@+]([O-])Cc4c(C)ncn4CCC)cc3)c2)cc1` [WX082], the pIC50 is 7.27.

Take `CCCOCCOc1ccc(-c2ccc(OCC)c(/C=C/C(=O)Nc3ccc([S@@+]([O-])Cc4cncn4CCC)cc3)c2)cc1` [WX067]: the negative logarithm of the IC50 (pIC50) was 7.77.

For `CCCCOc1ccc(-c2cccc(/C=C/C(=O)Nc3ccc([S@@+]([O-])Cc4cncn4CCC)cc3)c2)cc1` [WX009], the pIC50 is 7.20.

In the case of `CCCn1cncc1C[S@+]([O-])c1ccc(NC(=O)/C=C/c2cccc(-c3ccc(OC)cc3)c2)cc1` [WX002], the negative-log IC50 (pIC50) is 6.50.

Turning to `CCCOCCOc1ccc(-c2ccc(OC(F)F)c(/C=C/C(=O)Nc3ccc([S@@+]([O-])Cc4cncn4CCC)cc3)c2)cc1` [WX064], the pIC50 was 7.89.

For the compound `CCCCOCCOc1ccc(-c2ccc(Cl)c(/C=C/C(=O)Nc3ccc([S@@+]([O-])Cc4cncn4CCC)cc3)c2)cc1` [WX016], the pIC50 was 7.12.

In the case of `CCCCOCCOc1ccc(-c2ccc(OC(F)(F)F)c(/C=C/C(=O)Nc3ccc([S@+]([O-])Cc4c(C)ncn4CC)cc3)c2)cc1` [WX055], the pIC50 was 8.12.

On to `CCCCOCCOc1ccc(-c2cc(Cl)c(OC)c(/C=C/C(=O)Nc3ccc([S@@+]([O-])Cc4cncn4CCC)cc3)c2)cc1` [WX053], for which the pIC50 was 8.23.

As for `CCCCOCCOc1ccc(-c2ccc(OC)c(/C=C/C(=O)Nc3ccc([S@+]([O-])Cc4cncn4CCC)cc3)c2)cc1` [WX085], the negative-log IC50 (pIC50) was 8.28.

A further experiment addresses T2, CCR5 (Homo sapiens, UniProt P51681).
T2 construct: expressed in transfected cells; host or cells: HEK293, clone C13, passage P4
In words: CCR5 in vitro test: intracellular calcium signal detected by FLIPR. The class given is cell-based. The settings on record: HEK293 cells expressing CCR5, agonist RANTES at EC80, calcium signal. The method, then: as §1, §2, §3, §4, §5, §6, §7, §8, §9, §10, §11, §12, §13, §14, §15, §16, §17
For `CCCCOc1ccc(-c2ccc(OCC(F)F)c(/C=C/C(=O)Nc3ccc([S@@+]([O-])Cc4cncn4CCC)cc3)c2)cc1` [WX026], the negative-log IC50 (pIC50) is 8.49.

For `CCCCOCCOc1ccc(-c2cccc(/C=C/C(=O)Nc3ccc(S(=O)(=O)Cc4cncn4CCC)cc3)c2)cc1` [WX031], the pIC50 is 7.02.

With `CCCOCCOc1ccc(-c2ccc(OCC)c(/C=C/C(=O)Nc3ccc([S+]([O-])Cc4c(C)ncn4CCC)cc3)c2)cc1` (centres unmarked) [WX069], the pIC50 is 9.00.

In the case of `CCCOc1ccc(-c2cccc(/C=C(\C)C(=O)Nc3ccc([S+]([O-])Cc4nncn4CCC)cc3)c2)cc1` (centres unmarked) [WX015], the pIC50 was 7.19.

For the compound `CCCCOCCOc1ccc(-c2ccc(OCC)c(/C=C/C(=O)Nc3ccc([S@@+]([O-])Cc4cncn4CCC)cc3)c2)cc1` [WX032], the negative-log IC50 (pIC50) is 8.09.

Regarding `CCCCOCCOc1ccc(-c2ccc(OC)c(/C=C/C(=O)Nc3ccc([S@@+]([O-])Cc4cncn4CCC)cc3)c2)c(C)c1` [WX036], the negative logarithm of the IC50 (pIC50) was 7.88.

As for `CCCn1cncc1C[S@+]([O-])c1ccc(NC(=O)/C=C/c2cccc(-c3ccc(OCCOC)cc3)c2)cc1` [WX013], the pIC50 is 7.85.

As for `CCCCOCCOc1ccc(-c2ccc(O)c(/C=C/C(=O)Nc3ccc([S@@+]([O-])Cc4cncn4CCC)cc3)c2)cc1` [WX049], the pIC50 was 8.04.

As to `CCCCOCCOc1ccc(-c2ccc(C(C)C)c(/C=C/C(=O)Nc3ccc([S@@+]([O-])Cc4cncn4CCC)cc3)c2)cc1` [WX006], the negative-log IC50 (pIC50) was 8.48.

`CCCOCCOc1ccc(-c2ccc(OC)c(/C=C/C(=O)Nc3ccc([S@@+]([O-])Cc4cncn4CCC)cc3)c2)cc1` [WX050]: the pIC50 was 7.68.

Regarding `CCCCOCCOc1ccc(-c2ccc(OC(F)F)c(/C=C/C(=O)Nc3ccc([S@@+]([O-])Cc4c(C)ncn4CCC)cc3)c2)cc1` [WX082], the pIC50 was 7.94.

For the compound `CCCOCCOc1ccc(-c2ccc(OCC)c(/C=C/C(=O)Nc3ccc([S@@+]([O-])Cc4cncn4CCC)cc3)c2)cc1` [WX067], the negative logarithm of the IC50 (pIC50) was 9.05.

Regarding `CCCCOc1ccc(-c2cccc(/C=C/C(=O)Nc3ccc([S@@+]([O-])Cc4cncn4CCC)cc3)c2)cc1` [WX009], the pIC50 is 8.03.

As to `CCCn1cncc1C[S@+]([O-])c1ccc(NC(=O)/C=C/c2cccc(-c3ccc(OC)cc3)c2)cc1` [WX002], the pIC50 was 6.95.

`CCCOCCOc1ccc(-c2ccc(OC(F)F)c(/C=C/C(=O)Nc3ccc([S@@+]([O-])Cc4cncn4CCC)cc3)c2)cc1` [WX064]: the negative-log IC50 (pIC50) was 8.21.

Take `CCCCOCCOc1ccc(-c2ccc(Cl)c(/C=C/C(=O)Nc3ccc([S@@+]([O-])Cc4cncn4CCC)cc3)c2)cc1` [WX016]: the negative logarithm of the IC50 (pIC50) was 8.35.

On to `CCCCOCCOc1ccc(-c2ccc(OC(F)(F)F)c(/C=C/C(=O)Nc3ccc([S@+]([O-])Cc4c(C)ncn4CC)cc3)c2)cc1` [WX055], for which the pIC50 was 8.19.

Consider `CCCCOCCOc1ccc(-c2cc(Cl)c(OC)c(/C=C/C(=O)Nc3ccc([S@@+]([O-])Cc4cncn4CCC)cc3)c2)cc1` [WX053], for which the pIC50 was 8.89.

Regarding `CCCCOCCOc1ccc(-c2ccc(OC)c(/C=C/C(=O)Nc3ccc([S@+]([O-])Cc4cncn4CCC)cc3)c2)cc1` [WX085], the pIC50 is 8.25.
